According to patent US4328235A, “Suppressing pain with benzothiazol-2(3H)-ones” (Boehringer Ingelheim GmbH, priority 1979, dated 1982):
Read-outs that look alike come from different tables or passages of the source.

How the values were obtained:
[1] = system: Sensitivity of the Mouse in the Hot Plate Test; assay: Hot plate test (sensitivity of the mouse, increase of reaction time); type: in vivo; conditions: po, read-out: ED100 (dose which increased the time of reaction by 100%)
Procedure: The test substances were administered as trituration in 1% methyl cellulose (0.1 ml/10 g of mouse) by means of an oesophageal tube.
Before treatment with the test substances, the animals were twice put on the hot plate at an interval of 30 minutes, whereby their individual times of reaction were measured. After treatment with a test substance, the times of reaction of the animals were again measured in an interval of 30 minutes.

[2] = system: Pain of Inflammation on the Back Paw of the Rat; assay: Randall-Selitto test (pain of inflammation, yeast oedema, back paw of the rat); type: in vivo; conditions: po, 0.75 h, read-out: ED50 (dose which increased the pain threshold by 50%)
Procedure: The activity against the pain caused by inflammation was tested according to the method of RANDALL-SELITTO [Arch. Int. […] After a further 45 minutes the pain threshold was determined in the animals treated with the test compound and in the control animals treated only with the vehicle.

[3] = system: body temperature of Chbb:THOM-rats; assay: Antipyretic activity (rectal body temperature of rats); type: in vivo, rat; conditions: for ED (-1.5 degC): Rattus norvegicus, po, read-out: ED-1.5° C. (dose which decreases the body temperature by 1.5° C.)
Procedure: The test substances were administered as a trituration in a 1% methyl cellulose in portions of 1.0 ml/100 g of animal using an oesophageal tube.
From the values for the average maximum decline of temperature, which were gained after the administration of the different doses of the test substances, and after a linear regression analysis according to LINDER, an ED-1.5° C. was calculated with the confidence limits according to FIELLER as the dose which decreases the body temperature by 1.5° C.

Acute toxicity in mice = conditions: mouse, in vivo, po; Chbb-NMRI (SPF)-mice of both sexes, oesophageal tube, deaths within 14 days
Procedure: The acute toxicity was determined in Chbb-NMRI (SPF)-mice of both sexes, having an average body weight of 20 grams. The test compounds were administered as a trituration in 1% methyl cellulose (0.5 ml/10 g of animal) by means of an oesophageal tube. The calculation of the LD50 values was effected according to the method of LITCHFIELD and WILCOXON [J. Pharmacol. Exp. Ther., 96. 99 (1949)], based on the percentage of animals which died within 14 days after administration of different doses.

methemoglobin = assay: Determination of the level of methemoglobin in the cat; type: in vivo; conditions: oesophageal tube
Procedure: The test substances were administered to cats of both sexes having an average body weight of 2.5 kg, as a trituration in 1% methyl cellulose using an oesophageal tube (2 ml/kg; the oesophageal tube was cleared in situ by aqua bidestillata). After a single application blood-tests were taken by heart-punctuation at different times, that is, at 3 hours, 5 hours, 24 hours, and 48 hours after administration. The photometric registration of the spectrum of hemoglobin as well as the determination of the content of hemoglobin in comparison to controls were effected according to the method of LEMBERG and LEGGE [Hematin Compounds and Bile Pigments, Interscience Publishers, New York (1949)].

[4] = literature: W. Nimmich, Pharmazie, 19, (4), 281 (1964); cited from earlier work
[5] = male Chbb:NMRI (SPF)-mice, oesophageal tube, hot plate 52° C.
[6] = male Chbb:THOM-rats, oesophageal tube, 45 minutes after administration
[7] = Chbb:THOM-rats, oesophageal tube
[8] = 50 mg/kg, 3 hours after administration
[9] = 50 mg/kg, 5 hours after administration
[10] = 50 mg/kg, 24 hours after administration
[11] = 100 mg/kg, 3 hours after administration
[12] = 100 mg/kg, 5 hours after administration
[13] = 100 mg/kg, 24 hours after administration
[14] = 200 mg/kg, 3 hours after administration
[15] = 200 mg/kg, 5 hours after administration
[16] = 200 mg/kg, 24 hours after administration

| SMILES | ED100 [1, 5] | ED50 [2, 6] | ED (-1.5 degC) [3, 7] | LD50 at 336 h (Acute toxicity in mice) | Average value of methemoglobin (methemoglobin; [8]) | Average value of methemoglobin (methemoglobin; [9]) | Average value of methemoglobin (methemoglobin; [10]) | Average value of methemoglobin (methemoglobin; [11]) | Average value of methemoglobin (methemoglobin; [12]) | Average value of methemoglobin (methemoglobin; [13]) | Average value of methemoglobin (methemoglobin; [14]) | Average value of methemoglobin (methemoglobin; [15]) | Average value of methemoglobin (methemoglobin; [16]) | other results |
| --- | --- | --- | --- | --- | --- | --- | --- | --- | --- | --- | --- | --- | --- | --- |
| CCOc1ccc2[nH]c(=O)sc2c1 [A, 6-Ethoxy-benzothiazol-2(3H)-one] | 154 mg/kg | 64.3 mg/kg | 84.3 mg/kg | 1200 mg/kg | 0.3 % of total hemoglobin | 0.5 % of total hemoglobin | 1.1 % of total hemoglobin | 0.4 % of total hemoglobin | 0.1 % of total hemoglobin | 0.3 % of total hemoglobin | 1.0 % of total hemoglobin | 0.4 % of total hemoglobin | 0.5 % of total hemoglobin |  |
| COc1ccc2nc(O)sc2c1 [B, 6-Methoxy-benzothiazol-2(3H)-one] | 122 mg/kg | 142 mg/kg | 66.8 mg/kg | 1280 mg/kg |  |  |  | 4.6 % of total hemoglobin | 3.5 % of total hemoglobin | 0.0 % of total hemoglobin | 8.1 % of total hemoglobin | 11.7 % of total hemoglobin | 0.0 % of total hemoglobin |  |
| Cc1ccc2[nH]c(=O)sc2c1 [C, 6-Methyl-benzothiazol-2(3H)-one] | 144 mg/kg | 54.4 mg/kg | 30.9 mg/kg | 2160 mg/kg |  |  |  | 4.0 % of total hemoglobin | 2.4 % of total hemoglobin | 0.1 % of total hemoglobin | 13.6 % of total hemoglobin | 13.7 % of total hemoglobin | 0.4 % of total hemoglobin |  |
| CCOc1ccc(NC(C)=O)cc1 [D, Phenacetin, reference compound] |  |  |  | 1460 mg/kg | 19.6 % of total hemoglobin | 9.8 % of total hemoglobin | 0.5 % of total hemoglobin | 32.0 % of total hemoglobin | 35.8 % of total hemoglobin | 0.5 % of total hemoglobin | 36.0 % of total hemoglobin | 46.6 % of total hemoglobin | 15.4 % of total hemoglobin | ED100 [1]: 328 mg/kg; ED50 [2]: 274 mg/kg; ED (-1.5 degC) [3]: 34.4 mg/kg; Antipyretic activity (in words) ([3]; rat, in vivo): an antipyretic activity; Average value of methemoglobin (methemoglobin; 25 mg/kg, 3 hours after administration): 1.9 % of total hemoglobin; Average value of methemoglobin (methemoglobin; 25 mg/kg, 5 hours after administration): 0.4 % of total hemoglobin; Average value of methemoglobin (methemoglobin; 200 mg/kg, 48 hours after administration): 1.1 % of total hemoglobin |
| O=c1[nH]c2ccccc2s1 [Example 2, Benzothiazol-2(3H)-one] |  |  |  |  |  |  |  |  |  |  |  |  |  | Antimicrobial and fungistatic activity [4]: antimicrobial and fungistatic acitivity |
